Holding throughout (test): Bacterial susceptibility testing (MIC, broth microdilution)
Common to all, as to type: cell-based

For one experiment, the system named is P. aeruginosa PAO1. As to conditions: Pseudomonas aeruginosa. The procedure, abridged: (§1)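 CLSI broth microdilution was run in cation-adjusted Mueller-Hinton broth with an inoculum of 3×10^5–7×10^5 CFU/mL and 2-fold compound dilutions. Plates were incubated in ambient air at 35° C for 18-24 h. MIC was the lowest concentration preventing visible growth (OD600 nm<0.05).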

In the next experiment the test system is P. aeruginosa ATCC27853. As to conditions: Pseudomonas aeruginosa. The method in brief:
as §1

Another experiment deals with K. pneumoniae ATCC13883. As to conditions: Klebsiella pneumoniae. The method in brief:
as §1

A further experiment deals with E. coli ATCC25922. As to conditions: Escherichia coli. The method in brief: as §1
The mark [1] stands for this setting: PAO1, broth microdilution, cation adjusted Mueller-Hinton Broth, 35° C., 18-24 h, read-out: P. aeruginosa PAO1 MIC.
Where [2] appears, read: ATCC27853, broth microdilution, cation adjusted Mueller-Hinton Broth, 35° C., 18-24 h, read-out: P. aeruginosa ATCC27853 MIC.
Where [3] appears, read: ATCC13883, broth microdilution, cation adjusted Mueller-Hinton Broth, 35° C., 18-24 h, read-out: K. pneumoniae ATCC13883 MIC.
Where [4] appears, read: ATCC25922, broth microdilution, cation adjusted Mueller-Hinton Broth, 35° C., 18-24 h, read-out: E. coli ATCC25922 MIC.
Where [5] appears, read: PAO1, read-out: P. aeruginosa PAO1 MIC.
Setting [6] is: ATCC27853, read-out: P. aeruginosa ATCC27853 MIC.
Where [7] appears, read: ATCC13883, read-out: K. pneumoniae ATCC13883 MIC.
Where [8] appears, read: ATCC25922, read-out: E. coli ATCC25922 MIC.

≈ marks a conversion by molar mass, not a printed value. Read-outs that look alike come from different tables or passages of the source. Where only a bound is given, the exact number is not on record here.

As a reminder, the MIC is the smallest concentration in the dilution series that meets the test's criterion for growth inhibition.

Regarding `C[C@H](O)c1nccn1[C@@H](C#Cc1ccc(-c2ccc(CO[C@@H]3COC[C@H]3O)cc2F)cc1)CO` (single isomer, unassigned) [Compound 49], the MIC in the experiment on P. aeruginosa PAO1 (setting [1]) was determined as 2 µg/mL (≈ 4.29 µM); in the experiment on P. aeruginosa ATCC27853 (setting [2]), 4 µg/mL (≈ 8.57 µM); in the experiment on K. pneumoniae ATCC13883 (setting [3]), 1 µg/mL (≈ 2.14 µM); in the experiment on E. coli ATCC25922 (setting [4]) it was 0.5 µg/mL (≈ 1.07 µM).
In the case of `C[C@H](O)c1nccn1[C@@H](C#Cc1ccc(-c2ccc(O[C@H]3COC[C@@H]3O)c(F)c2F)cc1)CO` (single isomer, unassigned) [Compound 14], the MIC in the experiment with P. aeruginosa PAO1 (setting [1]) worked out at 4 µg/mL (≈ 8.5 µM); in the experiment with P. aeruginosa ATCC27853 (setting [2]) it was 8 µg/mL (≈ 17 µM); with K. pneumoniae ATCC13883 (setting [3]), 4 µg/mL (≈ 8.5 µM); in the experiment on E. coli ATCC25922 (setting [4]), 2 µg/mL (≈ 4.25 µM).
Turning to `C[C@H](O)c1nccn1[C@@H](C#Cc1ccc(-c2ccc(O[C@H]3COC[C@@H]3O)c(F)c2)c(F)c1)CO` (single isomer, unassigned) [Compound 11], the MIC with P. aeruginosa PAO1 (setting [1]) was determined as 4 µg/mL (≈ 8.5 µM); in the experiment with P. aeruginosa ATCC27853 (setting [2]), 8 µg/mL (≈ 17 µM); in the experiment on K. pneumoniae ATCC13883 (setting [3]), 4 µg/mL (≈ 8.5 µM); in the experiment with E. coli ATCC25922 (setting [4]), 1 µg/mL (≈ 2.13 µM).
On to `C[C@H](O)c1nccn1[C@@H](C#Cc1ccc(-c2ccc3c(c2)NCCO3)cc1)CO` [Compound 83, (S)-4-(4-(3,4-dihydro-2H-benzo[b][1,4]oxazin-6-yl)phenyl)-2-(2-((S)-1-hydroxyethyl)-1H-imidazol-1-yl)but-3-yn-1-ol], for which the MIC in the experiment on P. aeruginosa PAO1 (setting [1]) is 16 µg/mL (≈ 41.1 µM); in the experiment with P. aeruginosa ATCC27853 (setting [2]), above 32 µg/mL; in the experiment with K. pneumoniae ATCC13883 (setting [3]), 4 µg/mL (≈ 10.3 µM); with E. coli ATCC25922 (setting [4]), 2 µg/mL (≈ 5.14 µM).
For `C[C@H](O)c1nccn1[C@@H](C#Cc1ccc(-c2ccc(O[C@@H]3C[S+]([O-])C[C@H]3O)cc2)cc1)CO` (single isomer, unassigned) [Compound 74], the MIC turned out to be 2 µg/mL (≈ 4.29 µM) in the experiment with P. aeruginosa PAO1 (setting [1]), 2 µg/mL (≈ 4.29 µM) in the experiment on P. aeruginosa ATCC27853 (setting [2]), 4 µg/mL (≈ 8.57 µM) in the experiment with K. pneumoniae ATCC13883 (setting [3]) and 4 µg/mL (≈ 8.57 µM) in the experiment with E. coli ATCC25922 (setting [4]).
Turning to `C[C@H](O)c1nccn1[C@@H](C#Cc1ccc(-c2ccc(OC3CN(C(=O)N4CCOCC4)C3)cc2)cc1)CO` [Compound 96, (3-((4′-((S)-4-hydroxy-3-(2-((S)-1-hydroxyethyl)-1H-imidazol-1-yl)but-1-yn-1-yl)-[1,1′-biphenyl]-4-yl)oxy)azetidin-1-yl)(morpholino)methanone], the MIC in the experiment on P. aeruginosa PAO1 (setting [5]) amounted to 8 µg/mL (≈ 15.5 µM); with P. aeruginosa ATCC27853 (setting [6]), 8 µg/mL (≈ 15.5 µM); in the experiment with K. pneumoniae ATCC13883 (setting [7]), 8 µg/mL (≈ 15.5 µM); with E. coli ATCC25922 (setting [8]) it was 2 µg/mL (≈ 3.87 µM).
`C[C@H](O)c1nccn1[C@@H](C#Cc1ccc(-c2ccc3c(c2)CCN3)cc1)CO` [Compound 85, (S)-2-(2-((S)-1-hydroxyethyl)-1H-imidazol-1-yl)-4-(4-(indolin-5-yl)phenyl)but-3-yn-1-ol]: the MIC with P. aeruginosa PAO1 (setting [1]) was 16 µg/mL (≈ 42.8 µM); with P. aeruginosa ATCC27853 (setting [2]), above 32 µg/mL; in the experiment with K. pneumoniae ATCC13883 (setting [3]), 2 µg/mL (≈ 5.36 µM); in the experiment on E. coli ATCC25922 (setting [4]) it was 1 µg/mL (≈ 2.68 µM).
As for `C[C@H](O)c1nccn1[C@@H](C#Cc1ccc(-c2ccc(OC3CN(CCC#N)C3)cc2)cc1)CO` [Compound 93, 3-(3-((4′-((S)-4-hydroxy-3-(2-((S)-1-hydroxyethyl)-1H-imidazol-1-yl)but-1-yn-1-yl)-[1,1′-biphenyl]-4-yl)oxy)azetidin-1-yl)propanenitrile], the MIC with P. aeruginosa PAO1 (setting [5]) was 2 µg/mL (≈ 4.38 µM); in the experiment on P. aeruginosa ATCC27853 (setting [6]), 4 µg/mL (≈ 8.76 µM); in the experiment on K. pneumoniae ATCC13883 (setting [7]), 1 µg/mL (≈ 2.19 µM); with E. coli ATCC25922 (setting [8]) it was 0.5 µg/mL (≈ 1.1 µM).
As for `C[C@H](O)c1nccn1[C@@H](C#Cc1ccc(-c2ccc(O[C@@H]3COC[C@H]3O)c(Cl)c2)cc1)CO` (single isomer, unassigned) [Compound 62], the MIC is 16 µg/mL (≈ 34.1 µM) with P. aeruginosa PAO1 (setting [1]), above 32 µg/mL in the experiment with P. aeruginosa ATCC27853 (setting [2]), 8 µg/mL (≈ 17.1 µM) with K. pneumoniae ATCC13883 (setting [3]) and 4 µg/mL (≈ 8.53 µM) with E. coli ATCC25922 (setting [4]).

Values taken from US20260049092A1, “ANTIBACTERIAL COMPOUNDS” (Blacksmith Medicines, Inc., priority 2022, published 2026).
